Tests used:
[1] = tested on: rat; test: concentration in plasma after dosing
[2] = tested on: rat; test: concentration in brain after dosing; conditions: dosed: Imipramine, 10.0000000000 mg/kg, iv, male, Wistar

O=C1NC(=O)C(c2ccccc2)(c2ccccc2)N1 [Phenytoin]
[1], dosed: Phenytoin, 25.0000000000 mg/kg, iv, duration: 1 min, male, Sprague-Dawley
Conditions | concentration in plasma [ng/mL]
0.25 h | 21500
0.5 h | 15800
0.75 h | 12100
1 h | 8790
1 min | 461000
1.5 h | 4630
2 h | 2480
3 h | 1500
4 h | 831

[1], dosed: Phenytoin, male
Conditions | concentration in plasma [ng/mL]
0.25 h, 25.0000000000 mg/kg, oral, Sprague-Dawley | 4120
0.25 h, 40.0000000000 mg/kg, iv, Wistar-derived | 26900
0.5 h, 25.0000000000 mg/kg, oral, Sprague-Dawley | 3370
0.5 h, 40.0000000000 mg/kg, iv, Wistar-derived | 19300
0.75 h, 25.0000000000 mg/kg, oral, Sprague-Dawley | 2620
1 h, 25.0000000000 mg/kg, oral, Sprague-Dawley | 1820
1 h, 40.0000000000 mg/kg, iv, Wistar-derived | 14200
1.5 h, 25.0000000000 mg/kg, oral, Sprague-Dawley | 1200
1.5 h, 40.0000000000 mg/kg, iv, Wistar-derived | 11700
2 h, 25.0000000000 mg/kg, oral, Sprague-Dawley | 885
2 h, 40.0000000000 mg/kg, iv, Wistar-derived | 8970
2.5 h, 40.0000000000 mg/kg, iv, Wistar-derived | 7190
3 h, 25.0000000000 mg/kg, oral, Sprague-Dawley | 1170
3 h, 40.0000000000 mg/kg, iv, Wistar-derived | 4790
3.5 h, 40.0000000000 mg/kg, iv, Wistar-derived | 3020
4 h, 25.0000000000 mg/kg, oral, Sprague-Dawley | 1120
4 h, 40.0000000000 mg/kg, iv, Wistar-derived | 2270
5 min, 40.0000000000 mg/kg, iv, Wistar-derived | 54300
6 h, 25.0000000000 mg/kg, oral, Sprague-Dawley | 771
8 h, 25.0000000000 mg/kg, oral, Sprague-Dawley | 759
10 h, 25.0000000000 mg/kg, oral, Sprague-Dawley | 865
10 min, 40.0000000000 mg/kg, iv, Wistar-derived | 33800
12 h, 25.0000000000 mg/kg, oral, Sprague-Dawley | 495
20 min, 40.0000000000 mg/kg, iv, Wistar-derived | 23200
40 min, 40.0000000000 mg/kg, iv, Wistar-derived | 16800

COCCc1ccc(OC[C@H](O)CNC(C)C)cc1 [R-Metoprolol]
[1], dosed: Metoprolol, 15.0000000000 mg/kg, oral, male, Wistar
Conditions | concentration in plasma [ng/mL]
1 h | 24.4
1.5 h | 10.1
2 h | 12.2
2 min | 199
2.5 h | 4.49
3 h | 2.07
4 h | 1.05
4 min | 380
8 min | 84.6
10 min | 108
20 min | 79.3
40 min | 53.9
50 min | 35.4

COCCc1ccc(OC[C@@H](O)CNC(C)C)cc1 [S-Metoprolol]
[1], dosed: Metoprolol, 15.0000000000 mg/kg, oral, male, Wistar
Conditions | concentration in plasma [ng/mL]
0.1 h | 93.2
0.5 h | 53
1 h | 13.9
1.5 h | 8.15
2 h | 6.61
2 min | 219
2.5 h | 2.14
3 h | 1.45
4 min | 425
8 min | 79.3
10 min | 68.6
20 min | 54.7
40 min | 38.4
50 min | 24.4

CCCCNC(=O)NS(=O)(=O)c1ccc(C)cc1 [Tolbutamide]
[1], dosed: Tolbutamide, male
Conditions | concentration in plasma [ng/mL]
0.25 h, 20.0000000000 mg/kg, oral, Wistar | 79100
0.5 h, 20.0000000000 mg/kg, oral, Wistar | 84700
1 h, 10.0000000000 mg/kg, iv, Sprague-Dawley | 43400
1 h, 20.0000000000 mg/kg, oral, Wistar | 85900
1.5 h, 10.0000000000 mg/kg, iv, Sprague-Dawley | 38400
2 h, 10.0000000000 mg/kg, iv, Sprague-Dawley | 33400
2 h, 20.0000000000 mg/kg, oral, Wistar | 76400
3 h, 10.0000000000 mg/kg, iv, Sprague-Dawley | 29400
4 h, 10.0000000000 mg/kg, iv, Sprague-Dawley | 25300
4 h, 20.0000000000 mg/kg, oral, Wistar | 52900
5 h, 10.0000000000 mg/kg, iv, Sprague-Dawley | 23100
6 h, 10.0000000000 mg/kg, iv, Sprague-Dawley | 19500
6 h, 20.0000000000 mg/kg, oral, Wistar | 35800
8 h, 20.0000000000 mg/kg, oral, Wistar | 26600
10 min, 10.0000000000 mg/kg, iv, Sprague-Dawley | 64200
12 h, 20.0000000000 mg/kg, oral, Wistar | 17900
20 min, 10.0000000000 mg/kg, iv, Sprague-Dawley | 57100
40 min, 10.0000000000 mg/kg, iv, Sprague-Dawley | 49700

CCCC(CCC)C(=O)O [Valproic acid]
concentration in plasma [ng/mL], [1], dosed: Valproic acid, iv, Wistar
Conditions | 10.0000000000 mg/kg | 50.0000000000 mg/kg | 100.0000000000 mg/kg
0.017 h | 69900 | 290000 | 511000
0.05 h | 49300 | 256000 | 427000
0.083 h | 36300 | 228000 | 369000
0.167 h | 32000 | 199000 | 329000
0.25 h | 25700 | 168000 | 290000
0.5 h | 14700 | 120000 | 250000
0.75 h | 9080 | 72500 | 218000
1 h | 5100 | 42900 | 171000
2 h | 1200 | 5190 | 43700
3 h | 494 | 2040 | 4030
4 h | 298 | 905 | 1600

concentration in plasma [ng/mL], [1], dosed: Valproic acid, oral, female, Sprague-Dawley
Conditions | 0.25 h | 0.5 h | 0.75 h | 1 h | 2 h | 4 h
200.0000000000 mg/kg | 269000 | 333000 | 246000 | 182000 | 95600 | 23000
600.0000000000 mg/kg | 558000 | 841000 | 755000 | 691000 | 643000 | 294000

CNCCCN1c2ccccc2CCc2ccccc21 [desmethylimipramine]
[2]
Conditions | concentration in brain [µg/g]
0.5 h | 8.62
1 h | 1.08
2 h | 0.86
4 h | 0.72
5 min | 1.44
6 h | 0.69
10 min | 1.8

[1], dosed: Imipramine, 10.0000000000 mg/kg, iv, male, Wistar
Conditions | concentration in plasma [ng/mL]
1 h | 290
2 h | 370
4 h | 300
5 min | 440
10 min | 570

— EPA's CvTdb concentration-time database (doi:10.1093/toxsci/kfy020)
